Read-outs that look alike come from different tables or passages of the source.
Tests used:
rat CB2 = molecular target: T1, rat CB2 (Rattus norvegicus, UniProt Q9QZN9); test: rat CB2 radioligand binding assay ([3H]CP-55,940 competition); parameters: expressed in transfected cells; host or cells: HEK293
T1 sequence (Q9QZN9 1-360): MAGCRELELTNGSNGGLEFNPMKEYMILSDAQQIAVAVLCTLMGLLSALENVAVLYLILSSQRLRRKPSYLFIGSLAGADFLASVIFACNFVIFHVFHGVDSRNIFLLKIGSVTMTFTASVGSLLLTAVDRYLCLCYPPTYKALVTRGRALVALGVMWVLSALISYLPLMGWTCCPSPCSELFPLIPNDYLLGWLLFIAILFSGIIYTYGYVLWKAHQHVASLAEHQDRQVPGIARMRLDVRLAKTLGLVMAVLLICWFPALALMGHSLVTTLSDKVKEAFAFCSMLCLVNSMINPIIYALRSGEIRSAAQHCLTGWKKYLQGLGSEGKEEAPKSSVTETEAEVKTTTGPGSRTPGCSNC

human CB2 receptors = molecular target: T2, human CB2 receptors (Homo sapiens, UniProt P34972); test: human CB2 radioligand binding assay ([3H]CP-55,940 competition)
T2 construct: expressed in transfected cells; host or cells: HEK293
T2 sequence (P34972 whole entry): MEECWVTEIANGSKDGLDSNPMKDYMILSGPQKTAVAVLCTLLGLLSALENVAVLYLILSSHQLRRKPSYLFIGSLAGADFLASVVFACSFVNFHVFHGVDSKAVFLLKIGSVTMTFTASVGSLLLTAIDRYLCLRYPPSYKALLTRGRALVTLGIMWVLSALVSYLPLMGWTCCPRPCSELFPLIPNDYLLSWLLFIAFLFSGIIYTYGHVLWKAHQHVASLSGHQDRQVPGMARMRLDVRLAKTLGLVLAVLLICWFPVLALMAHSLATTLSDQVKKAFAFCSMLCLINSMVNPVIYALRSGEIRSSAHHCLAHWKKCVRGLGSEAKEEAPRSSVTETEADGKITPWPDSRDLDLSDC

[1] = HEK293 membranes, 0.5 nM [3H]CP-55,940, read-out: human CB2 (Ki)
[2] = HEK293 membranes, 0.5 nM [3H]CP-55,940, read-out: rat CB2 (Ki)

CCCCc1cn(C(C)(C)C)s/c1=N\C(=O)[C@]1(C)CC[C@H](C(=O)N2CCC2)C1(C)C [Example 178, (1R,3S)-3-(azetidin-1-ylcarbonyl)-N-[(5Z)-4-butyl-2-tert-butylisothiazol-5(2H)-ylidene]-1,2,2-trimethylcyclopentanecarboxamide]
Ki (rat CB2): 46 nM
Ki (human CB2 receptors): 170 nM

CCCCc1cn(C(C)(C)C)s/c1=N\C(=O)[C@]1(C)CC[C@H](C(=O)N(C)C)C1(C)C [Example 179, (1R,3S)—N^1-[(5Z)-4-butyl-2-tert-butylisothiazol-5(2H)-ylidene]-N^3,N^3,1,2,2-pentamethylcyclopentane-1,3-dicarboxamide]
Ki (rat CB2): 67 nM
Ki (human CB2 receptors): 160 nM

CCCCc1cn(C(C)(C)C)s/c1=N\C(=O)[C@]1(C)CC[C@H](C(=O)N2CC(O)C2)C1(C)C [Example 180, (1R,3S)—N-[(5Z)-4-butyl-2-tert-butylisothiazol-5(2H)-ylidene]-3-[(3-hydroxyazetidin-1-yl)carbonyl]-1,2,2-trimethylcyclopentanecarboxamide]
Ki (rat CB2): 37 nM
Ki (human CB2 receptors; [1]): 260 nM

CCCCc1cn(C(C)(C)C)s/c1=N\C(=O)[C@H]1CC[C@@](C)(C(=O)O)C1(C)C [Example 181, (1R,3S)-3-({[(5Z)-4-butyl-2-tert-butylisothiazol-5(2H)-ylidene]amino}carbonyl)-1,2,2-trimethylcyclopentanecarboxylic acid]
Ki (rat CB2): 15 nM
Ki (human CB2 receptors): 160 nM

CCCCc1cn(C(C)(C)C)s/c1=N\C(=O)[C@H]1CC[C@@](C)(C(=O)NC)C1(C)C [Example 182, (1R,3S)—N-[(5Z)-4-butyl-2-tert-butylisothiazol-5(2H)-ylidene]-N^1,1,2,2-tetramethylcyclopentane-1,3-dicarboxamidetetramethylcyclopentane-1,3-dicarboxamide]
Ki (rat CB2): 327 nM
Ki (human CB2 receptors): 350 nM

CCCCc1cn(C(C)(C)C)s/c1=N\C(=O)[C@H]1CC[C@@](C)(C(=O)N(C)C)C1(C)C [Example 183, (1R,3S)—N^3-[(5Z)-4-butyl-2-tert-butylisothiazol-5(2H)-ylidene]-N^1,N^1,1,2,2-pentamethylcyclopentane-1,3-dicarboxamide]
Ki (rat CB2): 40 nM
Ki (human CB2 receptors; [1]): 210 nM

CCCCc1cn(C(C)(C)C)s/c1=N\C(=O)[C@]1(C)CC[C@H](C(=O)N2CC(F)(F)C2)C1(C)C [Example 185, (1R,3S)—N-[(5Z)-4-butyl-2-tert-butylisothiazol-5(2H)-ylidene]-3-[(3,3-difluoroazetidin-1-yl)carbonyl]-1,2,2-trimethylcyclopentanecarboxamide]
Ki (rat CB2): 49 nM
Ki (human CB2 receptors; [1]): 113 nM

CCCCc1cn(C(C)(C)C)s/c1=N\C(=O)OCC(C)(C)C [Example 187, Neopentyl (5Z)-4-butyl-2-tert-butylisothiazol-5(2H)-ylidenecarbamate]
Ki (rat CB2): 8.2 nM
Ki (human CB2 receptors): 38 nM

CCCCc1cn(C(C)(C)C)s/c1=N\C(=O)OC12CC3CC(CC(C3)C1)C2 [Example 189, 1-adamantyl (5Z)-4-butyl-2-tert-butylisothiazol-5(2H)-ylidenecarbamate]
Ki (rat CB2): 5.3 nM
Ki (human CB2 receptors): 39 nM

CCCCc1cn(C(C)(C)C)s/c1=N\C(=O)N[C@H](C(=O)NC)C(C)(C)C [Example 190, N^2-({[(5Z)-4-butyl-2-tert-butylisothiazol-5(2H)-ylidene]amino}carbonyl)-N^1,3-dimethyl-L-valinamide]
Ki (rat CB2): 2.4 nM
Ki (human CB2 receptors): 2.4 nM

CCCCc1cn(C(C)(C)C)s/c1=N\C(=O)c1cc(C(F)(F)F)ccc1OC[C@@H]1CCC(=O)N1 [Example 194, N-[(5Z)-4-butyl-2-tert-butylisothiazol-5(2H)-ylidene]-2-{[(2S)-5-oxopyrrolidin-2-yl]methoxy}-5-(trifluoromethyl)benz amide]
Ki (rat CB2): 41 nM
Ki (human CB2 receptors; [1]): 170 nM

CC(C)Cc1cn(C(C)(C)C)s/c1=N\C(=O)c1cc(C(F)(F)F)ccc1OC[C@@H]1CCCN1C [Example 197, N-[(5Z)-2-tert-butyl-4-isobutylisothiazol-5(2H)-ylidene]-2-{[(2S)-1-methylpyrrolidin-2-yl]methoxy}-5-(trifluoromethyl)benzamide]
Ki (rat CB2; [2]): 156 nM
Ki (human CB2 receptors; [1]): 260 nM

CCCCc1cn(C(C)(C)C)s/c1=N\C(=O)c1cc(C(F)(F)F)ccc1OCc1cnccn1 [Example 198, N-[(5Z)-4-butyl-2-tert-butylisothiazol-5(2H)-ylidene]-2-(pyrazin-2-ylmethoxy)-5-(trifluoromethyl)benzamide]
Ki (rat CB2; [2]): 111 nM
Ki (human CB2 receptors; [1]): 250 nM

CC(C)Cc1cn(C(C)(C)C)s/c1=N\C(=O)c1cc(C(F)(F)F)ccc1OCc1ccccn1 [Example 200, N-[(5Z)-2-tert-butyl-4-isobutylisothiazol-5(2H)-ylidene]-2-(pyridin-2-ylmethoxy)-5-(trifluoromethyl)benzamide]
Ki (rat CB2; [2]): 391 nM
Ki (human CB2 receptors; [1]): 470 nM

CCCCc1cn(C(C)(C)C)s/c1=N\C(=O)[C@]1(C)CC[C@H](C(=O)NC2CC2)C1(C)C [Example 208, (1R,3S)—N^1-[(5Z)-4-butyl-2-tert-butylisothiazol-5(2H)-ylidene]-N^3-cyclopropyl-1,2,2-trimethylcyclopentane-1,3-dicarboxamide]
Ki (rat CB2): 11 nM
Ki (human CB2 receptors; [1]): 200 nM

CCCCc1cn(C(C)(C)C)s/c1=N\C(=O)[C@@H]1CC[C@](C)(C(=O)NCCC)C1(C)C [Example 211, (1S,3R)—N^3-[(5Z)-4-butyl-2-tert-butylisothiazol-5(2H)-ylidene]-1,2,2-trimethyl-N^1-propylcyclopentane-1,3-dicarboxamide]
Ki (rat CB2; [2]): 111 nM
Ki (human CB2 receptors; [1]): 270 nM

CCCCc1cn(C(C)(C)C)s/c1=N\C(=O)[C@]1(C)CC[C@H](C(=O)NCCCO)C1(C)C [Example 213, (1R,3S)—N^1-[(5Z)-4-butyl-2-tert-butylisothiazol-5(2H)-ylidene]-N^3-(3-hydroxypropyl)-1,2,2-trimethylcyclopentane-1,3-dicarboxamide]
Ki (rat CB2): 45 nM
Ki (human CB2 receptors; [1]): 140 nM

CCCCc1cn(C(C)(C)C)s/c1=N\C(=O)[C@]1(C)CC[C@H](C(=O)NC[C@H]2CCCO2)C1(C)C [Example 214, (1R,3S)—N^1-[(5Z)-4-butyl-2-tert-butylisothiazol-5(2H)-ylidene]-1,2,2-trimethyl-N^3-[(2R)-tetrahydrofuran-2-ylmethyl]cyclopentane-1,3-dicarboxamide]
Ki (rat CB2): 83 nM
Ki (human CB2 receptors): 130 nM

CCCCc1cn(C(C)(C)C)s/c1=N\C(=O)[C@]1(C)CC[C@H](NC(=O)OC)C1(C)C [Example 215, Methyl (1S,3R)-3-({[(5Z)-4-butyl-2-tert-butylisothiazol-5(2H)-ylidene]amino}carbonyl)-2,2,3-trimethylcyclopentylcarbamate]
Ki (rat CB2): 91 nM
Ki (human CB2 receptors): 69 nM

CCCCc1cn(C(C)(C)C)s/c1=N\C(=O)[C@]1(C)CC[C@H](NC(=O)OCC)C1(C)C [Example 216, Ethyl (1S,3R)-3-({[(5Z)-4-butyl-2-tert-butylisothiazol-5(2H)-ylidene]amino}carbonyl)-2,2,3-trimethylcyclopentylcarbamate]
Ki (rat CB2; [2]): 299 nM
Ki (human CB2 receptors; [1]): 160 nM

CCCCc1cn(C(C)(C)C)s/c1=N\C(=O)[C@@]1(C)CC[C@@H](C(=O)NCCC)C1(C)C [Example 219, (1S,3R)—N^1-[(5Z)-4-butyl-2-tert-butylisothiazol-5(2H)-ylidene]-1,2,2-trimethyl-N^3-propylcyclopentane-1,3-dicarboxamide]
Ki (rat CB2; [2]): 159 nM
Ki (human CB2 receptors; [1]): 204 nM

CCCCc1cn(C(C)(C)C)s/c1=N\C(=O)[C@@H]1CC[C@](C)(C2=NCCO2)C1(C)C [Example 224, (1R,3S)—N-[(5Z)-4-butyl-2-tert-butylisothiazol-5(2H)-ylidene]-3-(4,5-dihydro-1,3-oxazol-2-yl)-2,2,3-trimethylcyclopentanecarboxamide]
Ki (rat CB2): 20 nM
Ki (human CB2 receptors): 38 nM

CCCCc1cn(C(C)(C)C)s/c1=N\C(=O)[C@@]1(C)CC[C@@H](C(=O)NC2CCC2)C1(C)C [Example 225, (1S,3R)—N^1-[(5Z)-4-butyl-2-tert-butylisothiazol-5(2H)-ylidene]-N^3-cyclobutyl-1,2,2-trimethylcyclopentane-1,3-dicarboxamide]
Ki (rat CB2; [2]): 423 nM
Ki (human CB2 receptors; [1]): 290 nM

CCCCc1cn(C(C)(C)C)s/c1=N\C(=O)[C@]1(C)CC[C@H](C(=O)NC[C@@H]2CCCO2)C1(C)C [Example 226, (1R,3S)—N^1-[(5Z)-4-butyl-2-tert-butylisothiazol-5(2H)-ylidene]-1,2,2-trimethyl-N^3-[(2S)-tetrahydrofuran-2-ylmethyl]cyclopentane-1,3-dicarboxamide]
Ki (rat CB2): 132 nM
Ki (human CB2 receptors): 250 nM

CCCCc1cn(C(C)(C)C)s/c1=N\C(=O)[C@@]1(C)CC[C@@H](C2=NCCO2)C1(C)C [Example 231, (1S,3R)—N-[(5Z)-4-butyl-2-tert-butylisothiazol-5(2H)-ylidene]-3-(4,5-dihydro-1,3-oxazol-2-yl)-1,2,2-trimethylcyclopentanecarboxamide]
Ki (rat CB2): 11 nM
Ki (human CB2 receptors): 51 nM

CCCCc1cn(C(C)(C)C)s/c1=N\C(=O)[C@H]1CC[C@@](C)(C2=NCCO2)C1(C)C [Example 232, (1S,3R)—N-[(5Z)-4-butyl-2-tert-butylisothiazol-5(2H)-ylidene]-3-(4,5-dihydro-1,3-oxazol-2-yl)-2,2,3-trimethylcyclopentanecarboxamide]
Ki (rat CB2): 18 nM
Ki (human CB2 receptors): 45 nM

CCCCc1cn(C(C)(C)C)s/c1=N\C(=O)[C@]1(C)CC[C@H](C(=O)NCc2ccccn2)C1(C)C [Example 234, (1R,3S)—N^1-[(5Z)-4-butyl-2-tert-butylisothiazol-5(2H)-ylidene]-1,2,2-trimethyl-N^3-(pyridin-2-ylmethyl)cyclopentane-1,3-dicarboxamide]
Ki (rat CB2; [2]): 142 nM
Ki (human CB2 receptors; [1]): 320 nM

From patent publication US8501794B2, “Compounds as cannabinoid receptor ligands” (priority 2007, dated 2013)
